The first data set is described as follows: The drug is tested on Bifidobacterium longum subsp. Infantis strain: CCUG52486 for biotransformation. The drug concentrations were measured before and after a 12-h incubation by liquid-chromatography-coupled mass spectrometry (LC–MS). Particulars: 2 µM.
In the case of `O=C(O)c1cc(/N=N/c2ccc(S(=O)(=O)Nc3ccccn3)cc2)ccc1O` [SULFASALAZINE], the “Bacterial Biotransformation” value is given as “Compound metabolized”.
Consider `CC(C)NCC(O)COc1ccc(CCOCC2CC2)cc1` (stereo not drawn) [BETAXOLOL], for which the “Bacterial Biotransformation” value is given as “Compound NOT metabolized”.
Take `CCN(CC)CCNC(=O)c1ccc(NC(C)=O)cc1` [ACECAINIDE]: the “Bacterial Biotransformation” value is recorded as “Compound NOT metabolized”.

A further data set is described as follows: The drug is tested on Collinsella aerofaciens strain: ATCC25986 for biotransformation. The drug concentrations were measured before and after a 12-h incubation by liquid-chromatography-coupled mass spectrometry (LC–MS). The conditions noted are these: 2 µM.
`O=C(O)c1cc(/N=N/c2ccc(S(=O)(=O)Nc3ccccn3)cc2)ccc1O` [SULFASALAZINE]: the “Bacterial Biotransformation” value was “Compound metabolized”.
For the molecule `CC(C)NCC(O)COc1ccc(CCOCC2CC2)cc1` (stereo not drawn) [BETAXOLOL], the “Bacterial Biotransformation” value is given as “Compound NOT metabolized”.
On the same count and under the same terms, then `CCN(CC)CCNC(=O)c1ccc(NC(C)=O)cc1` [ACECAINIDE], with “Compound NOT metabolized”.

The nature of a further data set: The drug is tested on Bacteroides caccae strain: ATCC43185 for biotransformation. The drug concentrations were measured before and after a 12-h incubation by liquid-chromatography-coupled mass spectrometry (LC–MS). The conditions noted are these: 2 µM.
In the case of `O=C(O)c1cc(/N=N/c2ccc(S(=O)(=O)Nc3ccccn3)cc2)ccc1O` [SULFASALAZINE], the “Bacterial Biotransformation” value is “Compound metabolized”.
On the same count and under the same terms, for `CC(C)NCC(O)COc1ccc(CCOCC2CC2)cc1` (stereo not drawn) [BETAXOLOL] the value was “Compound NOT metabolized”; for `CCN(CC)CCNC(=O)c1ccc(NC(C)=O)cc1` [ACECAINIDE], “Compound NOT metabolized”.

Another data set can be described thus: The drug is tested on Bacteroides finegoldii strain: DSM17565 for biotransformation. The drug concentrations were measured before and after a 12-h incubation by liquid-chromatography-coupled mass spectrometry (LC–MS). Particulars: 2 µM.
Regarding `O=C(O)c1cc(/N=N/c2ccc(S(=O)(=O)Nc3ccccn3)cc2)ccc1O` [SULFASALAZINE], the “Bacterial Biotransformation” value is on record as “Compound metabolized”.
For the molecule `CC(C)NCC(O)COc1ccc(CCOCC2CC2)cc1` (stereo not drawn) [BETAXOLOL], the “Bacterial Biotransformation” value is “Compound NOT metabolized”.
Same read-out and setting: for `CCN(CC)CCNC(=O)c1ccc(NC(C)=O)cc1` [ACECAINIDE] the value was “Compound NOT metabolized”.

A further data set is described as follows: The drug is tested on Bacteroides fragilis strain: HMW615 for biotransformation. The drug concentrations were measured before and after a 12-h incubation by liquid-chromatography-coupled mass spectrometry (LC–MS). Particulars: 2 µM.
On to `O=C(O)c1cc(/N=N/c2ccc(S(=O)(=O)Nc3ccccn3)cc2)ccc1O` [SULFASALAZINE], for which the “Bacterial Biotransformation” value is on record as “Compound metabolized”.
Still for that read-out and setting: for `CC(C)NCC(O)COc1ccc(CCOCC2CC2)cc1` (stereo not drawn) [BETAXOLOL] the value was “Compound NOT metabolized”.
Same read-out and setting: for `CCN(CC)CCNC(=O)c1ccc(NC(C)=O)cc1` [ACECAINIDE] the value was “Compound NOT metabolized”.

The next data set is described as follows: The drug is tested on Bacteroides fragilis strain: ATCC43859 for biotransformation. The drug concentrations were measured before and after a 12-h incubation by liquid-chromatography-coupled mass spectrometry (LC–MS). The conditions noted are these: 2 µM.
Turning to `O=C(O)c1cc(/N=N/c2ccc(S(=O)(=O)Nc3ccccn3)cc2)ccc1O` [SULFASALAZINE], the “Bacterial Biotransformation” value was “Compound metabolized”.
The same measure, in the same setting: for `CC(C)NCC(O)COc1ccc(CCOCC2CC2)cc1` (stereo not drawn) [BETAXOLOL] the value was “Compound NOT metabolized”; for `CCN(CC)CCNC(=O)c1ccc(NC(C)=O)cc1` [ACECAINIDE], “Compound metabolized”.

Another data set is described as follows: The drug is tested on Bacteroides xylanisolvens strain: DSM18836 for biotransformation. The drug concentrations were measured before and after a 12-h incubation by liquid-chromatography-coupled mass spectrometry (LC–MS). Particulars: 2 µM.
For `O=C(O)c1cc(/N=N/c2ccc(S(=O)(=O)Nc3ccccn3)cc2)ccc1O` [SULFASALAZINE], the “Bacterial Biotransformation” value is “Compound metabolized”.
On the same count and under the same terms, then `CCN(CC)CCNC(=O)c1ccc(NC(C)=O)cc1` [ACECAINIDE], with “Compound NOT metabolized”.

The nature of the next data set: The drug is tested on Odoribacter splanchnicus strain: fecal isolate for biotransformation. The drug concentrations were measured before and after a 12-h incubation by liquid-chromatography-coupled mass spectrometry (LC–MS). Particulars: 2 µM.
For `O=C(O)c1cc(/N=N/c2ccc(S(=O)(=O)Nc3ccccn3)cc2)ccc1O` [SULFASALAZINE], the “Bacterial Biotransformation” value is given as “Compound metabolized”.
Regarding `CC(C)NCC(O)COc1ccc(CCOCC2CC2)cc1` (stereo not drawn) [BETAXOLOL], the “Bacterial Biotransformation” value is given as “Compound NOT metabolized”.

A further data set in a line: The drug is tested on Clostridium scindens strain: ATCC35704 for biotransformation. The drug concentrations were measured before and after a 12-h incubation by liquid-chromatography-coupled mass spectrometry (LC–MS). Particulars: 2 µM.
`O=C(O)c1cc(/N=N/c2ccc(S(=O)(=O)Nc3ccccn3)cc2)ccc1O` [SULFASALAZINE]: the “Bacterial Biotransformation” value is reported as “Compound metabolized”.
Still for that read-out and setting: for `CC(C)NCC(O)COc1ccc(CCOCC2CC2)cc1` (stereo not drawn) [BETAXOLOL] the value was “Compound NOT metabolized”; for `CCN(CC)CCNC(=O)c1ccc(NC(C)=O)cc1` [ACECAINIDE], “Compound NOT metabolized”.

Another data set can be described thus: The drug is tested on Clostridium sporogenes strain: ATCC15579 for biotransformation. The drug concentrations were measured before and after a 12-h incubation by liquid-chromatography-coupled mass spectrometry (LC–MS). The conditions noted are these: 2 µM.
With `O=C(O)c1cc(/N=N/c2ccc(S(=O)(=O)Nc3ccccn3)cc2)ccc1O` [SULFASALAZINE], the “Bacterial Biotransformation” value is on record as “Compound metabolized”.
As for `CC(C)NCC(O)COc1ccc(CCOCC2CC2)cc1` (stereo not drawn) [BETAXOLOL], the “Bacterial Biotransformation” value was “Compound NOT metabolized”.
With `CCN(CC)CCNC(=O)c1ccc(NC(C)=O)cc1` [ACECAINIDE], the “Bacterial Biotransformation” value is reported as “Compound NOT metabolized”.

Another data set in a line: The drug is tested on Coprococcus comes strain: ATCC27758 for biotransformation. The drug concentrations were measured before and after a 12-h incubation by liquid-chromatography-coupled mass spectrometry (LC–MS). The class given is ADME. Details: dose 2 uM, timepoint 0 vs 12 hours. Particulars: 2 µM.
In the case of `O=C(O)c1cc(/N=N/c2ccc(S(=O)(=O)Nc3ccccn3)cc2)ccc1O` [SULFASALAZINE], the “Bacterial Biotransformation” value is listed as “Compound metabolized”.
Same read-out and setting: for `CC(C)NCC(O)COc1ccc(CCOCC2CC2)cc1` (stereo not drawn) [BETAXOLOL] the value was “Compound NOT metabolized”.
Same read-out and setting: for `CCN(CC)CCNC(=O)c1ccc(NC(C)=O)cc1` [ACECAINIDE] the value was “Compound NOT metabolized”.

The next data set is described as follows: The drug is tested on Eubacterium hallii strain: DSM3353 for biotransformation. The drug concentrations were measured before and after a 12-h incubation by liquid-chromatography-coupled mass spectrometry (LC–MS). The conditions noted are these: anaerobutyricum hallii, 2 µM.
Regarding `O=C(O)c1cc(/N=N/c2ccc(S(=O)(=O)Nc3ccccn3)cc2)ccc1O` [SULFASALAZINE], the “Bacterial Biotransformation” value is listed as “Compound metabolized”.
With `CC(C)NCC(O)COc1ccc(CCOCC2CC2)cc1` (stereo not drawn) [BETAXOLOL], the “Bacterial Biotransformation” value is given as “Compound NOT metabolized”.
Take `CCN(CC)CCNC(=O)c1ccc(NC(C)=O)cc1` [ACECAINIDE]: the “Bacterial Biotransformation” value was “Compound NOT metabolized”.

The nature of the next data set: The drug is tested on Ruminococcus lactaris strain: ATCC29176 for biotransformation. The drug concentrations were measured before and after a 12-h incubation by liquid-chromatography-coupled mass spectrometry (LC–MS). The conditions noted are these: 2 µM.
`O=C(O)c1cc(/N=N/c2ccc(S(=O)(=O)Nc3ccccn3)cc2)ccc1O` [SULFASALAZINE]: the “Bacterial Biotransformation” value was “Compound metabolized”.
On the same count and under the same terms, for `CC(C)NCC(O)COc1ccc(CCOCC2CC2)cc1` (stereo not drawn) [BETAXOLOL] the value was “Compound NOT metabolized”; for `CCN(CC)CCNC(=O)c1ccc(NC(C)=O)cc1` [ACECAINIDE], “Compound NOT metabolized”.

Another data set in a line: The drug is tested on Providencia rettgeri strain: DSM1131 for biotransformation. The drug concentrations were measured before and after a 12-h incubation by liquid-chromatography-coupled mass spectrometry (LC–MS). The class given is ADME. The arrangement: dose 2 uM, timepoint 0 vs 12 hours. Particulars: 2 µM.
With `O=C(O)c1cc(/N=N/c2ccc(S(=O)(=O)Nc3ccccn3)cc2)ccc1O` [SULFASALAZINE], the “Bacterial Biotransformation” value is on record as “Compound NOT metabolized”.
Still for that read-out and setting: for `CC(C)NCC(O)COc1ccc(CCOCC2CC2)cc1` (stereo not drawn) [BETAXOLOL] the value was “Compound NOT metabolized”; for `CCN(CC)CCNC(=O)c1ccc(NC(C)=O)cc1` [ACECAINIDE], “Compound NOT metabolized”.

The conditions of the next data set: bacteroides fragilis, 12 h, 2 µM.
Description: The drug is tested on Bacteroides fragilis strain: 3397 (T10) for biotransformation. The drug concentrations were measured before and after a 12-h incubation by liquid-chromatography-coupled mass spectrometry (LC–MS)
Take `O=C(O)c1cc(/N=N/c2ccc(S(=O)(=O)Nc3ccccn3)cc2)ccc1O` [SULFASALAZINE]: the “Bacterial Biotransformation” value was “Compound metabolized”.
Still for that read-out and setting: for `CC(C)NCC(O)COc1ccc(CCOCC2CC2)cc1` (stereo not drawn) [BETAXOLOL] the value was “Compound NOT metabolized”.
In the case of `CCN(CC)CCNC(=O)c1ccc(NC(C)=O)cc1` [ACECAINIDE], the “Bacterial Biotransformation” value is listed as “Compound NOT metabolized”.

The conditions of the next data set: bacteroides intestinalis, 12 h, 2 µM.
Description: The drug is tested on Bacteroides intestinalis strain: DSM17393 for biotransformation. The drug concentrations were measured before and after a 12-h incubation by liquid-chromatography-coupled mass spectrometry (LC–MS)
For `O=C(O)c1cc(/N=N/c2ccc(S(=O)(=O)Nc3ccccn3)cc2)ccc1O` [SULFASALAZINE], the “Bacterial Biotransformation” value was “Compound metabolized”.
On the same count and under the same terms, for `CC(C)NCC(O)COc1ccc(CCOCC2CC2)cc1` (stereo not drawn) [BETAXOLOL] the value was “Compound NOT metabolized”; for `CCN(CC)CCNC(=O)c1ccc(NC(C)=O)cc1` [ACECAINIDE], “Compound NOT metabolized”.

For a further data set the following is noted: bacteroides thetaiotaomicron, 12 h, 2 µM.
Description: The drug is tested on Bacteroides thetaiotaomicron strain: 3731 for biotransformation. The drug concentrations were measured before and after a 12-h incubation by liquid-chromatography-coupled mass spectrometry (LC–MS)
Consider `O=C(O)c1cc(/N=N/c2ccc(S(=O)(=O)Nc3ccccn3)cc2)ccc1O` [SULFASALAZINE], for which the “Bacterial Biotransformation” value is given as “Compound metabolized”.
Regarding `CC(C)NCC(O)COc1ccc(CCOCC2CC2)cc1` (stereo not drawn) [BETAXOLOL], the “Bacterial Biotransformation” value is reported as “Compound NOT metabolized”.

For the next data set the following is noted: parabacteroides distasonis, 12 h, 2 µM.
Description: The drug is tested on Parabacteroides distasonis strain: ATCC8503 for biotransformation. The drug concentrations were measured before and after a 12-h incubation by liquid-chromatography-coupled mass spectrometry (LC–MS)
Turning to `O=C(O)c1cc(/N=N/c2ccc(S(=O)(=O)Nc3ccccn3)cc2)ccc1O` [SULFASALAZINE], the “Bacterial Biotransformation” value is “Compound metabolized”.
On the same count and under the same terms, then `CCN(CC)CCNC(=O)c1ccc(NC(C)=O)cc1` [ACECAINIDE], with “Compound NOT metabolized”.

For another data set the following is noted: anaerostipes sp., 12 h, 2 µM.
Description: The drug is tested on Anaerostipes sp. strain: fecal isolate for biotransformation. The drug concentrations were measured before and after a 12-h incubation by liquid-chromatography-coupled mass spectrometry (LC–MS)
Regarding `O=C(O)c1cc(/N=N/c2ccc(S(=O)(=O)Nc3ccccn3)cc2)ccc1O` [SULFASALAZINE], the “Bacterial Biotransformation” value is “Compound metabolized”.
For `CC(C)NCC(O)COc1ccc(CCOCC2CC2)cc1` (stereo not drawn) [BETAXOLOL], the “Bacterial Biotransformation” value is “Compound NOT metabolized”.
Consider `CCN(CC)CCNC(=O)c1ccc(NC(C)=O)cc1` [ACECAINIDE], for which the “Bacterial Biotransformation” value is reported as “Compound NOT metabolized”.
